Test results as given in patent US6677307B2, “TGF-α polypeptides, functional fragments and methods of use therefor” (Kaleidos Pharma, Inc., priority 1999, dated 2004).
Where two headings read alike, the source gives them in different places.

Experiments:
[1] = test system: human CD34 positive and CD38 negative cells; assay: liquid primary culture of human bone-marrow enriched CD34 cells; type: cell-based; details: positive control, 500 ng/ml
Description: An additional experiment investigated TGF-α activity (using TGF-α57) on human bone-marrow enriched CD34 cells. FACS-sorted human CD34 positive and CD38 negative cells were cultured in liquid primary cultures in Iscove's modified Dulbecco's media with supplements. […] Stem Cell Factor (SCF) was used as a positive control (500 ng/ml) and provided a three-fold increase in CD34 positive cells. When a combination of SCF (500 ng/ml) and TGFα (10 ng/ml) was added, a synergistic 12-fold increase in CD34 positive cells was observed.

[2] = test system: EGF receptor family (e.g., ErbB1 through 4); details: background statement; cited from earlier work
[3] = acid and heat; background statement; cited from earlier work
[4] = test system: chronic inflammatory-like gastrointestinal symptoms; type: in vivo, non-human primate; parameters: wt.: unit not given here; details: for wt.: non-human primate, 300 μg/kg ip once, then 50 μg/kg S.C. 6 days
Description: (§1) In addition, studies of TGF-α for the treatment of diarrhea in non-human primates was also performed. […] This weight gain was maintained at least for several weeks post treatment. In addition, the reduction of SEGs (see column 6, Table 1) neutrophils correlates with reduction in inflammation associated with neutrophil influx and concomitant pro-inflammatory cytokines.

[5] = type: in vivo; details: non-human primate, 300 μg/kg ip once, then 50 μg/kg S.C. 6 days
Description: as §1

mouse intestines = assay: histological examination of intestines of CP-treated mice; type: in vivo; details: CP treatment; 50 μg/kg; FIG. 4
Description: The experiment procedure dosed those animals to be treated with TGFα 57 4 hours prior to challenge with CP. A single dose of CP was administered. Additional doses (as indicated) of TGFα 57 were made at 24 hours, 48 hours, 72 hours and 96 hours after the CP dose. All doses were made by IP injection. Controls were dosed with saline instead of either or both of CP and TGF-α57.
The animals were sacrificed about 4 hours after the last TGF-α57 (or saline) dose. Key organs were removed and spleens were immediately weighed after a clean incision. All the relevant organs were placed in formalin, transported for histopathological analysis, mounted, sectioned, stained and observed. The results of this histological analysis of the spleens for hematopoietic effect and the GI tract (below) provided surprising and unexpected data of the effect of TGF-α57 activity.
TGFα or a peptide from formula I, formula II, formula III, formula IV, formula V, or formula VI having TGFα activity or combinations thereof are also useful for treating mucositis associated intestinal bleeding, dyspepsia caused by with cytotoxic therapy and for improving the barrier function of the GI tract compromised by cytotoxic therapy. The in vivo experiment with seven groups of mice described above for hematopoietic effects noted in spleens also examined the GI tract of these treated mice. […] A single row of intestinal crypt is found at the base of the mucosa. These crypts that lie between adjacent villi are surrounded by the same lamina propria that form the villous cores. Both columnar absorptive cells and goblet cells cover the villous surfaces. The goblet cells contain apical clear vacuoles. […] Specifically, the villus was long and slender. Both absorptive cells and goblet cells were visible at the surface of the villi, and there was an abundant amount of goblet cells on the surface.
A 160×magnification of the intestines of a CP-treated mouse, a normal mouse and a CP treated and TGFα57 treated mouse at the same doses as described above. […] The crypts were irregularly shaped and in had various heights. […] The crypts also appeared normal.
Red cells were visible at the damaged surface indicating intestinal bleeding. […] Globlet cells appeared interspersed, necrotic and fewer in number than normal. […] Specifically, the epithelial cells appeared normal with extended brush borders. The nuclei were very densely stained and elongated.
The histological data is summarized in FIG. 4 that measured average crypt height of the three groups of mice.
An alcian blue staining method permitted differentiation of absorptive cells and goblet cells. Goblet cell mucus is stained a blue color while the absorptive cells remain less stained. […] In the normal intestine each villus extended from the luminal surface to the basal muscularis mucosal surface. Goblet cells were scattered and predominated in the base of the villus whereas columnar absorptive cells lined the luminal surface. […] The injured absorptive and goblet cells were degenerating at the tip of the villi and abundant secretory mucus material was stained in the luminal surface. In the CP/TGF-α mouse, there were an increased number of goblet cells scattered throughout the villi. The intestinal villi appeared normal with elongation. […] The luminal plasma membranes of the villi were well protected by TGF-α treatment. The number of goblet cells was counted on the average unit length of intestine.

[6] = test system: immune cells (T cell lineage), mast cells; assay: immune cells, mast cells and cytokines in vivo after CP; parameters: species or system mice; details: in vivo
Text: The stimulated immune cells were phenotypically identified as CD4 positive T cells and double null CD4 negative CD8 negative T cell progenitors. […] The in vivo activity of TGFα (and the functional peptides of formula I, formula II, formula III, and formula IV) to stimulate early T cell progenitors in the release of TH-1 and TH-2 cytokines and this regulation of immune phenomena. The stimulation of select immune cells, in particular cells of a T cell lineage, was seen consistently in the mice who received CP and TGF-α57 in lymphoid tissue, Peyers Patches and the spleen. Further, recruitment of help via CD4 cells in some cases boosts immune system function in general.
This is a parallel activity that is in addition to the gastrointestinal anti-inflammatory activity and prevention of mucositis of TGFα (and the functional peptides of formula I, formula II, formula III, and […]) described herein.

[7] = cited from earlier work
stem cells = assay: stimulation of cellular proliferation, 3H thymidine incorporation of stem cells; type: cell-based; details: loop peptides of human TGFα; compared to TGF-α 50 aa and 57 aa polypeptide; FIG. 2
Text: Each of the three loop regions in human TGFα was investigated for TGFα-like biological activity, such as stimulation of cellular proliferation as measured by ^3H thymidine incorporation of stem cells. […] Accordingly, data from TGFα or TGF-α57 show what can be called “TGF-α activity” and that these are predictive of activity of the functional TGF-α peptide and similar functional TGF-α peptides embodied in the genus of formula I with or without the addition of a “tail” region of formula II.

## SCF: Stem Cell Factor, used as a positive control [reference compound]
[1]
  increase in CD34 positive cells: three-fold

## TGF-α: human transforming growth factor alpha, 50 amino acid polypeptide with three disulfide bonds, SEQ ID NO:1
[2]
  binding affinity: high affinity in the nanomolar range
[3]
  stability: acid and heat stable
[4]; 300 μg/kg intraperitoneally once, then 50 μg/kg S.C. for 6 days
  stool consistency: steady increase in stool consistency
[4]; Time 1
  wt.: 5.80
[4]; Time 2
  wt.: 6.33
[4]; Time 3
  wt.: 6.74
[4]; Time 4
  wt.: 8.21
[4]; Time 5
  wt.: 8.93
[4]; Time 6
  wt.: 9.42
[4]; through the treatment period, 300 μg/kg intraperitoneally once, then 50 μg/kg S.C. for 6 days
  weight: steady weight gain
[5]; Time 1
  CD4^+: 28.4%
  CD8^+: 56.3%
  Dual CD8^+ CD4^+: 6.7%
  Seg: 76%
[5]; Time 2
  Seg: 69%
[5]; Time 3
  CD4^+: 36.7%
  CD8^+: 53.1%
  Dual CD8^+ CD4^+: 6.3%
  Seg: 61%
[5]; Time 4
  CD4^+: 31.3%
  CD8^+: 54.0%
  Dual CD8^+ CD4^+: 9.1%
  Seg: 48%
[5]; Time 5
  CD4^+: 33.4%
  CD8^+: 49.8%
  Dual CD8^+ CD4^+: 8.1%
  Seg: 46%
[5]; Time 6
  CD4^+: 35.1%
  CD8^+: 50.3%
  Dual CD8^+ CD4^+: 7.7%
  Seg: 56%
Mouse intestines
  average crypt height: more-than-restore crypt height loss
[6]
  IL-6 and MIP: downregulating IL-6 and MIP
  TNF-α receptors: downregulating TNF-α receptors
  mast cell degranulation and histamine release: prevented mast cell degranulation and subsequent histamine release
  neutrophil trafficking: blocking neutrophil trafficking
[7]
  estimated pKa of the lysine 29 ε amino: 10.4

## Loop A: loop peptide region of TGFα, amino acids 1-21 starting at the N terminus (VVSHFNDCPDSHTQFCFHGTC)
Stem cells
  TGF-α biological activity (stimulation of cellular proliferation): Only Loop C showed significant TGF-α activity

## Loop C: loop peptide region of TGFα, amino acids 33 to 50; TGF-α mimetic peptide (VCHSGYVGARCEHADLLA)
Stem cells
  TGF-α biological activity (stimulation of cellular proliferation): significant TGF-α biological activity

## Loop B: loop peptide region of TGFα, amino acids 16 to 32 (CFHGTCRFLVQEDKPAC)
Stem cells
  TGF-α biological activity (stimulation of cellular proliferation): Only Loop C showed significant TGF-α activity
